Measurements: ChEMBL document CHEMBL5120960, “Unveiling the Structure-Activity Relationships at the Orthosteric Binding Site of P2X Ion Channels: The Route to Selectivity” (J Med Chem, 2022)

Tests used:
Assay type in all cases: cell-based
P2X purinoceptor 1 [1] = biological target: T1, P2X purinoceptor 1 (Homo sapiens, UniProt P51575); experiment: […] activity at human P2X1R expressing CHO cells assessed as reduction in intracellular Ca2+ influx pretreated with Fluo-4 for 1 hr followed by compound addition and further incubated for 30 mins in presence of ATP by multimode plate reader analysis
T1 sequence (P51575 whole entry): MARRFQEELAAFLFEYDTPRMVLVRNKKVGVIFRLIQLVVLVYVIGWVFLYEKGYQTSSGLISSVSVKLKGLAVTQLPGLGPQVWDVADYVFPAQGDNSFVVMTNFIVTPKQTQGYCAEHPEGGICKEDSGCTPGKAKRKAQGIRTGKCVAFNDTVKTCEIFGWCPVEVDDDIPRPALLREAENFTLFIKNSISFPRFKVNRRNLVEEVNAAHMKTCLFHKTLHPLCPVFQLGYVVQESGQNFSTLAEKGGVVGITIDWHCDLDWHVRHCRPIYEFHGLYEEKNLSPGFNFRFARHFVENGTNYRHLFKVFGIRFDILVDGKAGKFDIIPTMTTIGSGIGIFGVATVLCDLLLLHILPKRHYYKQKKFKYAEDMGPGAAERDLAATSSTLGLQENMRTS

P2X purinoceptor 2 [2] = biological target: T2, P2X purinoceptor 2 (Homo sapiens, UniProt Q9UBL9); experiment: […] activity at human P2X2R expressing CHO cells assessed as reduction in intracellular Ca2+ influx pretreated with Fluo-4 for 1 hr followed by compound addition and further incubated for 30 mins in presence of ATP by multimode plate reader analysis
T2 sequence (Q9UBL9 whole entry): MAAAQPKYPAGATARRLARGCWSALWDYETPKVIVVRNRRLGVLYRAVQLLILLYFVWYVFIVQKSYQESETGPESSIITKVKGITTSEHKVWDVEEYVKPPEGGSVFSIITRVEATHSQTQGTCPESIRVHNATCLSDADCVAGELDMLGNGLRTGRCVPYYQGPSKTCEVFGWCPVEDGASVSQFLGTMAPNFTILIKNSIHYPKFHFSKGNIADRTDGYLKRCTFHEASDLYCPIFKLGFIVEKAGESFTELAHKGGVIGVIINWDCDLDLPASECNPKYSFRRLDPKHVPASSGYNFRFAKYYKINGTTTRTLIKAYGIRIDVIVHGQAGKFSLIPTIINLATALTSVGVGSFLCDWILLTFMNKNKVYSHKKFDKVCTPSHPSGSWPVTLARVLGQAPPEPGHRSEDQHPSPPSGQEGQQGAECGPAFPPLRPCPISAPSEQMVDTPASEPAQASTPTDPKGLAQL

P2X purinoceptor 3 [3] = biological target: T3, P2X purinoceptor 3 (Homo sapiens, UniProt P56373); experiment: […] activity at human P2X3R expressing CHO cells assessed as reduction in intracellular Ca2+ influx pretreated with Fluo-4 for 1 hr followed by compound addition and further incubated for 30 mins in presence of ATP by multimode plate reader analysis
T3 sequence (P56373 whole entry): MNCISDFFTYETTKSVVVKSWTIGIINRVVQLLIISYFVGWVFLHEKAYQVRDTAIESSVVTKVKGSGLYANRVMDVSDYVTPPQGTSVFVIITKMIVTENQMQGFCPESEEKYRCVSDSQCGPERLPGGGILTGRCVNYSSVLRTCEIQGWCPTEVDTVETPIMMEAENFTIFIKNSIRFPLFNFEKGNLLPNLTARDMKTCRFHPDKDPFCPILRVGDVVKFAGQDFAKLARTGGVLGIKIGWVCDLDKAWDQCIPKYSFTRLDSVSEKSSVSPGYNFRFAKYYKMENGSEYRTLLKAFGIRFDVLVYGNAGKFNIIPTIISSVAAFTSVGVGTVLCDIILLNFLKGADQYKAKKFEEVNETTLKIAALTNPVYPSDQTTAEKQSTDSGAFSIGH

[4] = biological target: T4, P2X2/P2X3 heterotrimeric receptor (Homo sapiens, UniProt P56373+Q9UBL9); experiment: […] activity at human P2X2R/P2X3R expressing CHO cells assessed as reduction in intracellular Ca2+ influx pretreated with Fluo-4 for 1 hr followed by compound addition and further incubated for 30 mins in presence of ATP by multimode plate reader analysis
T4 sequence (Q9UBL9 whole entry): T2 sequence (Q9UBL9 whole entry)
T4 sequence (P56373 whole entry): T3 sequence (P56373 whole entry)

P2X purinoceptor 4 [5] = biological target: T5, P2X purinoceptor 4 (Homo sapiens, UniProt Q99571); experiment: […] activity at human P2X4R expressing HEK293 cells assessed as reduction in intracellular Ca2+ influx pretreated with Fluo-4 for 1 hr followed by compound addition and further incubated for 30 mins in presence of ATP by multimode plate reader analysis
T5 sequence (Q99571 whole entry): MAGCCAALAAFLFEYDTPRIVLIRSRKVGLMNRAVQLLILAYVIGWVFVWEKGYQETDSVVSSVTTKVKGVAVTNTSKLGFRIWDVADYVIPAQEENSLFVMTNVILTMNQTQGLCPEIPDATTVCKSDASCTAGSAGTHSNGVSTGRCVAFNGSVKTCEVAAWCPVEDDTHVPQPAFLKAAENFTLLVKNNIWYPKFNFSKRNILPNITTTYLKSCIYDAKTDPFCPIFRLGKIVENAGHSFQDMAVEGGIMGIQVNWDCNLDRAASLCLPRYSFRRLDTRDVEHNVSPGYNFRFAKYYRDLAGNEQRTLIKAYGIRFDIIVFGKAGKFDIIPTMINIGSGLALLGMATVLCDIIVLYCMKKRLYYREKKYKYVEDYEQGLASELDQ

P2X purinoceptor 7 [6] = biological target: T6, P2X purinoceptor 7 (Homo sapiens, UniProt Q99572); experiment: […] activity at human P2X7R expressing HEK293 cells assessed as reduction in intracellular Ca2+ influx pretreated with Fluo-4 for 1 hr followed by compound addition and further incubated for 30 mins in presence of ATP by multimode plate reader analysis
T6 sequence (Q99572 whole entry): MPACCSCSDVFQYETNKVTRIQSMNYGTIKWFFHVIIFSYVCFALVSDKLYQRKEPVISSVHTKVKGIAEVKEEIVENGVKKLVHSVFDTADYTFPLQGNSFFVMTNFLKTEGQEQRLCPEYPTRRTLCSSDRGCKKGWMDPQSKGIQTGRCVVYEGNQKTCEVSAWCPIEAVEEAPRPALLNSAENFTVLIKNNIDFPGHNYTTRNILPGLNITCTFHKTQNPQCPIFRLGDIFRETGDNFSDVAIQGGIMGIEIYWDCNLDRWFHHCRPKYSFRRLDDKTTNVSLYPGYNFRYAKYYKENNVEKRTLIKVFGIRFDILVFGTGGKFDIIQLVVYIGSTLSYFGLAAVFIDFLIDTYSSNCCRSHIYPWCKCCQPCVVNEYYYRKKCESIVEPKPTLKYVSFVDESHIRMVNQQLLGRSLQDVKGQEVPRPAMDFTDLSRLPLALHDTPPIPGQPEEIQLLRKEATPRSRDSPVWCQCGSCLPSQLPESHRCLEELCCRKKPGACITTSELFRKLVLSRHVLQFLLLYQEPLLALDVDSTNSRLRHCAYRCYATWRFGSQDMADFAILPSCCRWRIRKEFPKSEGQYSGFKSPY

P2X purinoceptor 7 [7] = biological target: T6, P2X purinoceptor 7; experiment: […] activity at human P2X7R expressed in HEK293 cells assessed as reduction in YO-PRO-1 iodide dye uptake preincubated for 30 mins followed by YO-PRO-1 iodide addition and measured after 2 hrs by fluorescence based multimode plate reader analysis
P2X purinoceptor 1 [8] = biological target: T1, P2X purinoceptor 1; experiment: Antagonist activity at human P2X1R expressing CHO cells assessed as reduction in intracellular Ca2+ influx pretreated with Fluo-4 for 1 hr followed by compound addition and further incubated for 30 mins in presence of ATP by multimode plate reader analysis
P2X purinoceptor 2 [9] = biological target: T2, P2X purinoceptor 2; experiment: Antagonist activity at human P2X2R expressing CHO cells assessed as reduction in intracellular Ca2+ influx pretreated with Fluo-4 for 1 hr followed by compound addition and further incubated for 30 mins in presence of ATP by multimode plate reader analysis
P2X purinoceptor 3 [10] = biological target: T3, P2X purinoceptor 3; experiment: Antagonist activity at human P2X3R expressing CHO cells assessed as reduction in intracellular Ca2+ influx pretreated with Fluo-4 for 1 hr followed by compound addition and further incubated for 30 mins in presence of ATP by multimode plate reader analysis
[11] = biological target: T4, P2X2/P2X3 heterotrimeric receptor; experiment: Antagonist activity at human P2X2R/P2X3R expressing CHO cells assessed as reduction in intracellular Ca2+ influx pretreated with Fluo-4 for 1 hr followed by compound addition and further incubated for 30 mins in presence of ATP by multimode plate reader analysis
P2X purinoceptor 4 [12] = biological target: T5, P2X purinoceptor 4; experiment: Antagonist activity at human P2X4R expressing HEK293 cells assessed as reduction in intracellular Ca2+ influx pretreated with Fluo-4 for 1 hr followed by compound addition and further incubated for 30 mins in presence of ATP by multimode plate reader analysis
P2X purinoceptor 7 [13] = biological target: T6, P2X purinoceptor 7; experiment: Antagonist activity at human P2X7R expressing HEK293 cells assessed as reduction in intracellular Ca2+ influx pretreated with Fluo-4 for 1 hr followed by compound addition and further incubated for 30 mins in presence of ATP by multimode plate reader analysis

Row | SMILES | IC50 (P2X purinoceptor 1 [1]) [µM] | IC50 (P2X purinoceptor 2 [2]) [µM] | IC50 (P2X purinoceptor 3 [3]) [µM] | IC50 [4] [µM] | IC50 (P2X purinoceptor 4 [5]) [µM] | IC50 (P2X purinoceptor 7 [6]) [µM] | IC50 (P2X purinoceptor 7 [7]) [µM] | EC50 (P2X purinoceptor 1 [1]) [µM] | EC50 (P2X purinoceptor 2 [2]) [µM] | EC50 (P2X purinoceptor 3 [3]) [µM] | EC50 [4] [µM] | EC50 (P2X purinoceptor 4 [5]) [µM] | EC50 (P2X purinoceptor 7 [6]) [µM] | EC50 (P2X purinoceptor 7 [7]) [µM] | IC50 (P2X purinoceptor 1 [8]) [µM] | IC50 (P2X purinoceptor 2 [9]) [µM] | IC50 (P2X purinoceptor 3 [10]) [µM] | IC50 [11] [µM] | IC50 (P2X purinoceptor 4 [12]) [µM] | IC50 (P2X purinoceptor 7 [13]) [µM]
1 | Nc1ncnc2c1ncn2[C@@H]1O[C@H](COP(=O)(O)OP(=O)(O)OP(=O)(O)O)[C@@H](O)[C@@H]1O | > 100 | > 100 | > 100 | > 100 | 10.5 | > 100 | > 100 | – | – | – | – | – | – | – | – | – | – | – | – | –
2 | Nc1ncnc2c1ncn2[C@@H]1O[C@H](COP(=O)(O)OP(=O)(O)OP(=O)(O)O)[C@@H](OC(=O)c2cccc3ccccc23)[C@H]1OC(=O)c1cccc2ccccc12 | – | – | – | – | – | – | – | > 100 | > 100 | > 100 | > 100 | > 100 | 16.6 | 22.4 | 15.8 | 10 | 18.6 | 11.5 | 6.31 | > 100
3 | [N-]=[N+]=Nc1nc2c(N)ncnc2n1[C@@H]1O[C@H](COP(=O)(O)OP(=O)(O)OP(=O)(O)O)[C@@H](O)[C@H]1O | > 100 | > 100 | > 100 | > 100 | > 100 | > 100 | > 100 | – | – | – | – | – | – | – | – | – | – | – | – | –

More lines, now with the values ahead:

Row | IC50 (P2X purinoceptor 1 [1]) [µM] | IC50 (P2X purinoceptor 2 [2]) [µM] | IC50 (P2X purinoceptor 3 [3]) [µM] | IC50 [4] [µM] | IC50 (P2X purinoceptor 4 [5]) [µM] | IC50 (P2X purinoceptor 7 [6]) [µM] | IC50 (P2X purinoceptor 7 [7]) [µM] | EC50 (P2X purinoceptor 1 [1]) [µM] | EC50 (P2X purinoceptor 2 [2]) [µM] | EC50 (P2X purinoceptor 3 [3]) [µM] | EC50 [4] [µM] | EC50 (P2X purinoceptor 4 [5]) [µM] | EC50 (P2X purinoceptor 7 [6]) [µM] | EC50 (P2X purinoceptor 7 [7]) [µM] | IC50 (P2X purinoceptor 1 [8]) [µM] | IC50 (P2X purinoceptor 2 [9]) [µM] | IC50 (P2X purinoceptor 3 [10]) [µM] | IC50 [11] [µM] | IC50 (P2X purinoceptor 4 [12]) [µM] | IC50 (P2X purinoceptor 7 [13]) [µM] | SMILES
4 | > 100 | > 100 | 30.2 | 0.692 | > 100 | > 100 | > 100 | – | – | – | – | – | – | – | – | – | – | – | – | – | CCCCNc1ncnc2c1ncn2[C@@H]1O[C@H](COP(=O)(O)OP(=O)(O)OP(=O)(O)O)[C@@H](O)[C@H]1O
5 | 1.51 | > 100 | 1.51 | 0.00832 | > 100 | > 100 | > 100 | – | – | – | – | – | – | – | – | – | – | – | – | – | O=P(O)(O)OP(=O)(O)OP(=O)(O)OC[C@H]1O[C@@H](n2cnc3c(S)ncnc32)[C@H](O)[C@@H]1O
6 | > 100 | > 100 | > 100 | > 100 | > 100 | > 100 | > 100 | – | – | – | – | – | – | – | – | – | – | – | – | – | CO[C@@H]1[C@H](O)[C@@H](COP(=O)(O)OP(=O)(O)OP(=O)(O)O)O[C@H]1n1cnc2c(N)ncnc21
7 | > 100 | 3.98 | > 100 | 2.69 | > 100 | > 100 | > 100 | – | – | – | – | – | – | – | – | – | – | – | – | – | O=P(O)(O)OP(=O)(O)OP(=O)(O)OC[C@H]1O[C@@H](n2cnc3c(NCc4ccccc4)ncnc32)[C@H](O)[C@@H]1O
